Experimental data from article PMC12064818, “A general assay platform to study protein pharmacology using ligand-dependent structural dynamics” (Nature Communications, 2025).

molecular target: T1, FLuc-C-HiBiT (Photinus pyralis, UniProt P08659); assay: biochemical; details: enzyme activity, 10 uM ATP; read-out: IC50 or SDR50 (mM) / FLuc E
T1 construct: firefly luciferase with C-terminal HiBiT tag, E. coli expressed
Protocol: The enzyme activity of FLuc-N-HiBiT, FLuc-C-HiBiT, and FLuc-C-NLuc was measured similar to P. pyralis firefly luciferase (FLuc) as previously described. […] Compounds and controls were added to each plate as described in Supplementary Data 8 with a Hornet pintool system (Wako Automation). Compounds were incubated with respective enzymes for 30–60 min at room temperature protected from light and covered by solid metal lid to prevent evaporation. […] Luciferin was incubated with FLuc enzyme for 5 min before FLuc activity was then measured on a ViewLux CCD imager (PerkinElmer), with exposure times up to ten seconds with medium to high gain settings. Data were normalized to average no enzyme control as 100% enzyme inhibition and average DMSO neutral control. See Supplementary Table 4 for additional details. As a proof-of-concept target, we appended the sensor protein or corresponding α-peptide to either the N- or C-terminus of the target protein firefly luciferase (FLuc), an ATP cofactor-dependent monooxygenase (Supplementary Fig. 1a) having a broad, well-characterized and accessible ligand pharmacology. For initial characterization of the SDR concept, either NLuc or the 11 amino acid HiBiT tag (α-peptide) and complementary 18 kDa LgBiT subunit (ω-fragment), which self-assemble to reconstitute functional NLuc enzyme[24] were tested. In contrast to the ATP-dependent bioluminescent FLuc enzyme, NLuc generates a bright bioluminescence in an ATP-independent manner from the direct oxidation of furimazine (Supplementary Fig. 1b). […] Next, FLuc-C-NLuc, FLuc-N-HiBiT or FLuc-C-HiBiT were assayed with the same inhibitor in an SDR assay format by monitoring bioluminescence from NLuc or its reconstitution by α-complementation with LgBiT. Measurements of NLuc activity were made either in the absence or presence of the FLuc ATP cofactor, as NLuc bioluminescence is ATP-independent.

T1 sequence (P08659 whole entry, looked up): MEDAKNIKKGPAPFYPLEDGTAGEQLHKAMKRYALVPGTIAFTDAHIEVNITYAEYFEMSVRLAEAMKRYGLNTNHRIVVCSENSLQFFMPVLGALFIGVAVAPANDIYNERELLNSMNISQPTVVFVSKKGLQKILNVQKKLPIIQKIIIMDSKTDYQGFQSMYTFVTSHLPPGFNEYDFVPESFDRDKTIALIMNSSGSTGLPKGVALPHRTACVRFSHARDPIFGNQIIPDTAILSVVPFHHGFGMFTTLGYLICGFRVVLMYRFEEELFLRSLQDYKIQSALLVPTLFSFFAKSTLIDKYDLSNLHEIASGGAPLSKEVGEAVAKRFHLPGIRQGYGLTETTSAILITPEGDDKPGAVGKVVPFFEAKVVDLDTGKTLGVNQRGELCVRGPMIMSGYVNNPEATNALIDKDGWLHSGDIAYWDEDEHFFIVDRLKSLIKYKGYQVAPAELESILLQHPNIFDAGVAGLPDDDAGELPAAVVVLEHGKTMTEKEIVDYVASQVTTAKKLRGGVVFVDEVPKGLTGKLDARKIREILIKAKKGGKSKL

Row | Structure (SMILES) | IC50
1 | Cc1ccc(C(=O)COC(=O)c2cc(-c3cccs3)nc3ccccc23)cc1 [NCGC00100788-01] | 0.0124 mM
2 | COc1ccc(CN(C(=O)c2cc3ccccc3oc2=O)C2CC[S+](=O)([O-])C2)cc1OC (stereo not shown) [NCGC00100996-01] | > 0.03 mM
3 | CCCc1ccc(OCc2ccc(C(=O)Nc3ccccc3C(=O)OC)o2)cc1 [NCGC00101032-01] | 0.0124 mM
4 | COCCNc1oc(-c2ccc(OC)cc2)nc1C#N [NCGC00101301-01] | 0.0124 mM
5 | CC(C)c1ccc(C(=O)Nc2ccc(-c3nc4ccccc4s3)c(Cl)c2)cc1 [NCGC00101984-01] | > 0.03 mM
6 | COc1ccc(C(=O)Nc2ccc(-c3nc4ccccc4s3)c(Cl)c2)cc1Cl [NCGC00102002-01] | > 0.03 mM
7 | COc1c(C)cccc1C(=O)Nc1ccc(-c2nc3ccccc3s2)c(Cl)c1 [NCGC00102004-01] | > 0.03 mM
8 | CCCOc1cccc(C(=O)Nc2ccc(-c3nc4ccccc4s3)c(Cl)c2)c1 [NCGC00102006-02] | 0.0157 mM
9 | COc1ccc(-c2nc3ccccc3s2)cc1NC(=O)c1ccccc1OC [NCGC00102097-01] | 0.0111 mM
10 | Cc1ccc(Cc2cn3cc(-c4ccccc4)nc3s2)cc1 [NCGC00102098-01] | 0.000442 mM
11 | COc1ccc(-c2nc3ccccc3s2)cc1NC(=O)c1cc(OC)c(OC)c(OC)c1 [NCGC00102099-01] | 0.00157 mM
12 | Clc1ccccc1Cc1cn2cc(-c3ccccc3)nc2s1 [NCGC00102100-01] | 0.000442 mM
13 | COc1ccc(-c2nc3ccccc3s2)cc1NC(=O)COc1cccc(C)c1 [NCGC00102101-01] | > 0.03 mM
14 | Fc1ccc(Cc2cn3cc(-c4ccccc4)nc3s2)cc1 [NCGC00102102-01] | 0.000442 mM
15 | COc1ccc(-c2nc3ccccc3s2)cc1NC(=O)c1cc2ccccc2o1 [NCGC00102103-01] | > 0.03 mM
16 | Clc1ccc(-c2cn3cc(Cc4ccccc4)sc3n2)cc1 [NCGC00102104-01] | 0.000785 mM
17 | Fc1ccccc1Cc1cn2cc(-c3ccc(Cl)cc3)nc2s1 [NCGC00102106-01] | 0.00157 mM

Row | Structure (SMILES) | IC50
18 | Fc1ccc(Cc2cn3cc(-c4ccc(Cl)cc4)nc3s2)cc1 [NCGC00102108-01] | 0.00351 mM
19 | Fc1ccc(-c2cn3cc(Cc4ccccc4)sc3n2)cc1 [NCGC00102110-01] | 0.000279 mM
20 | Fc1ccc(-c2cn3cc(Cc4ccccc4Cl)sc3n2)cc1 [NCGC00102130-01] | 0.000989 mM
21 | Fc1ccc(Cc2cn3cc(-c4ccc(F)cc4)nc3s2)cc1 [NCGC00102134-01] | 0.000881 mM
22 | Brc1ccc(-c2cn3cc(Cc4ccccc4)sc3n2)cc1 [NCGC00102136-01] | 0.000881 mM
23 | COc1ccc(-c2noc(-c3ccc(C)cc3Cl)n2)cc1OC [NCGC00102273-01] | 0.00124 mM
24 | COc1cc(OC)cc(C(=O)Nc2cc(-c3nc4ccccc4s3)ccc2OC)c1 [NCGC00102359-01] | > 0.03 mM
25 | COc1ccc(-c2nc3ccccc3s2)cc1NC(=O)c1cccc([N+](=O)[O-])c1C [NCGC00102361-01] | 0.00624 mM
26 | Cc1cc(-c2nc3ccccc3s2)ccc1NC(=O)c1cc(Cl)ccc1Cl [NCGC00102363-01] | > 0.03 mM
27 | COc1ccc(C(=O)Nc2ccc(-c3nc4ccccc4s3)cc2C)cc1Cl [NCGC00102365-01] | > 0.03 mM
28 | CCCCOc1ccc(C(=O)Nc2ccc(-c3nc4ccccc4s3)cc2C)cc1 [NCGC00102367-01] | > 0.03 mM
29 | O=C(/C=C/c1ccccc1)Nc1cc(-c2nc3cc(Cl)ccc3o2)ccc1Cl [NCGC00102391-01] | > 0.03 mM
30 | Cc1ccc2nc(-c3cccc(NC(=O)CSc4ccc(Cl)cc4)c3)oc2c1 [NCGC00102431-01] | 0.00351 mM
31 | Cc1cc2nc(-c3cccc(NC(=O)COc4ccc(C(C)C)cc4)c3)oc2cc1C [NCGC00102495-01] | 0.00989 mM
32 | COc1ccc(C(=O)Nc2cc(C(C)C)c(O)c([S+](=O)([O-])c3ccc(Cl)cc3)c2C)cc1 [NCGC00102536-01] | 0.0124 mM
33 | O=C(Nc1ccccc1-c1nc2ccccc2s1)c1ccc(F)cc1 [NCGC00102555-01] | > 0.03 mM
34 | COc1cccc(C(=O)Nc2ccccc2-c2nc3ccccc3s2)c1 [NCGC00102557-01] | > 0.03 mM
